In data set [1] the target is T1, Cytochrome P450 3A4 (Homo sapiens, UniProt P08684). Put plainly: Drug metabolism assessed as human CYP3A4-mediated compound formation from 20 uM [14C]boceprevir after 120 mins by LC-MS/FSA method relative to total [14C]boceprevir. It is filed as ADME. The conditions noted are these: recombinant enzyme, 2 h.
Another data set concerns the target T2, Cytochrome P450 1A2 (Homo sapiens, UniProt P05177).
T2 sequence (P05177 whole entry): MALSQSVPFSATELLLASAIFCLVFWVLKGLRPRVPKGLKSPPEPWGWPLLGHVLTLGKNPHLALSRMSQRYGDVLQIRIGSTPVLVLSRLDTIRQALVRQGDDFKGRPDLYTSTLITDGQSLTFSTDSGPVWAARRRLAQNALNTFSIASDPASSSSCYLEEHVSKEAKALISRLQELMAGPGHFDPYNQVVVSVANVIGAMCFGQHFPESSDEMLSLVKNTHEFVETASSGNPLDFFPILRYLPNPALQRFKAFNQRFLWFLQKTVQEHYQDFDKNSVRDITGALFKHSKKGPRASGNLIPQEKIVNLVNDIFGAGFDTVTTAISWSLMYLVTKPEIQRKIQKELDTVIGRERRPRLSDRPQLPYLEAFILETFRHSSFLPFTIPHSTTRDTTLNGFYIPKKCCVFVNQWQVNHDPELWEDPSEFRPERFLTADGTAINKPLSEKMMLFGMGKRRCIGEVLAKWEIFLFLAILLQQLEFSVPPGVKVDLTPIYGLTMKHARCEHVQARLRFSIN
Put plainly: (§1) Drug metabolism assessed as human […]-mediated compound formation from 5 uM [14C]boceprevir after 120 mins by LC-MS/FSA method relative to total [14C]boceprevir. It is filed as ADME. The conditions noted are these: recombinant enzyme, 2 h.

The next data set has as its target T3, Cytochrome P450 1A1 (Homo sapiens, UniProt P04798).
T3 sequence (P04798 whole entry): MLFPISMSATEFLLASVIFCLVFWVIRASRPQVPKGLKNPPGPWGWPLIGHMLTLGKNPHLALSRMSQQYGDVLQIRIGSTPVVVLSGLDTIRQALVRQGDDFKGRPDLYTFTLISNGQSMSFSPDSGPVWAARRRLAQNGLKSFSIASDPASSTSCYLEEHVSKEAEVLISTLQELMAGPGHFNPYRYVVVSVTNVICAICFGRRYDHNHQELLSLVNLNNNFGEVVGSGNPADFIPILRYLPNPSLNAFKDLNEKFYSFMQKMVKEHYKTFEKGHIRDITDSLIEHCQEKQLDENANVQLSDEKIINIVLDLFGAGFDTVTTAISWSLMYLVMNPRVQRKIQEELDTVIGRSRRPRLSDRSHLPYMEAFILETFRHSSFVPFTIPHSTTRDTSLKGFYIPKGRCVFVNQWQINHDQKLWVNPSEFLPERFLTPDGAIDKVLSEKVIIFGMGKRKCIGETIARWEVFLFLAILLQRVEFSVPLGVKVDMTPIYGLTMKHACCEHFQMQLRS
Described as §1. The format is ADME. The conditions noted are these: recombinant enzyme, 2 h.

A short description of data set [2]: Retention time of the compound by LC-MS/MS method. The format is physicochemical.
Data set [3] concerns the target T4, Cytochrome P450 3A5 (Homo sapiens, UniProt P20815). Put plainly: Drug metabolism assessed as human CYP3A5-mediated compound formation from 5 uM [14C]boceprevir after 120 mins by LC-MS/FSA method relative to total [14C]boceprevir. It is filed as ADME. To be noted: recombinant enzyme, 2 h.
Another data set has as its target Cytochrome P450 2D6 (Homo sapiens, UniProt P10635). Put plainly: Drug metabolism assessed as human CYP2D6-mediated compound formation from 5 uM [14C]boceprevir after 120 mins by LC-MS/FSA method relative to total [14C]boceprevir. It is filed as ADME. To be noted: recombinant enzyme, 2 h.
For data set [4], the target named is T1, Cytochrome P450 3A4. Put plainly: Drug metabolism assessed as human CYP3A4-mediated compound formation from 5 uM [14C]boceprevir after 120 mins by LC-MS/FSA method relative to total [14C]boceprevir. The format is ADME. The conditions noted are these: recombinant enzyme, 2 h.
Another data set concerns the target T5, Cytochrome P450 4F3 (Homo sapiens, UniProt Q08477).
T5 sequence (Q08477 whole entry): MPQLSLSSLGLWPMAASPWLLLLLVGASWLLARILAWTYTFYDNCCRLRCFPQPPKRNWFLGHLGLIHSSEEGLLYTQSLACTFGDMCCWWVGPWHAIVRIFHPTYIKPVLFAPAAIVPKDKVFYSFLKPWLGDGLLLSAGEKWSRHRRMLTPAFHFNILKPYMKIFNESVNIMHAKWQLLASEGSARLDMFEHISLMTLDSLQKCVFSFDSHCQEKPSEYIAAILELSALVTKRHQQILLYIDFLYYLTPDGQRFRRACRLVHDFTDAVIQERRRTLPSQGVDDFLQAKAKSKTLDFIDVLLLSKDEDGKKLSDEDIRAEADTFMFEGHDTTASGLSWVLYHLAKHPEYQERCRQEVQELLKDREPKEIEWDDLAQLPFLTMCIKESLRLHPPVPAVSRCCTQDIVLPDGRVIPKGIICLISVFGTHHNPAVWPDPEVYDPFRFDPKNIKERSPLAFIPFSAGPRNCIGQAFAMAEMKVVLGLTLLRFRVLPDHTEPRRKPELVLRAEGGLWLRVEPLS
Put plainly: Drug metabolism assessed as human CYP4F3A-mediated compound formation from 5 uM [14C]boceprevir after 120 mins by LC-MS/FSA method relative to total [14C]boceprevir. It is filed as ADME. To be noted: recombinant enzyme, 2 h.

The test system of the next data set is Plasma. Put plainly: Drug metabolism in human plasma treated with [14C]boceprevir assessed as ratio of drug level by LC-MS/MS method relative to boceprevir. It is filed as ADME, cell-free.
For another data set, the target named is T6, Cytochrome P450 2B6 (Homo sapiens, UniProt P20813).
T6 sequence (P20813 whole entry): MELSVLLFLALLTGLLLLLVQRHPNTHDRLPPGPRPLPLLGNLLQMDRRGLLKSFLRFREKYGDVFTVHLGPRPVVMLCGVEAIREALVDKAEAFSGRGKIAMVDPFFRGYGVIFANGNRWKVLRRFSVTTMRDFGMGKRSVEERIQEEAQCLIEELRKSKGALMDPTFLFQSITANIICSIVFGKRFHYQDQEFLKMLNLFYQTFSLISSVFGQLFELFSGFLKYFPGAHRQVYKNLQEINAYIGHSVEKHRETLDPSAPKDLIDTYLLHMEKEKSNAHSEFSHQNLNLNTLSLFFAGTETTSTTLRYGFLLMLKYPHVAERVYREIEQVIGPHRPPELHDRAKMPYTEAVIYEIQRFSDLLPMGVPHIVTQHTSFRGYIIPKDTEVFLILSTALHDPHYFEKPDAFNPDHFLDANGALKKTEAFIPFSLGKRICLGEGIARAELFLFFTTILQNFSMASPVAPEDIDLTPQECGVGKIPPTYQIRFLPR
Put plainly: Drug metabolism assessed as human CYP2B6-mediated compound formation from 5 uM [14C]boceprevir after 120 mins by LC-MS/FSA method relative to total [14C]boceprevir. The format is ADME. The conditions noted are these: recombinant enzyme, 2 h.

Data set [5] concerns the target T4, Cytochrome P450 3A5. Put plainly: Drug metabolism assessed as human CYP3A5-mediated compound formation from 20 uM [14C]boceprevir after 120 mins by LC-MS/FSA method relative to total [14C]boceprevir. The format is ADME. The conditions noted are these: recombinant enzyme, 2 h.
Data set [6] has as its system Liver cytosol. Put plainly: Ratio of Vmax to Km for drug metabolism in human liver cytosol assessed as (1R,2S,5S)-N-((2S,3R)-4-amino-1-cyclobutyl-3-hydroxy-4-oxobutan-2-yl)-3-((S)-2-(3-tert-butylureido)-3,3-dimethylbutanoyl)-6,6-dimethyl-3-azabicyclo[3.1.0]hexane-2-carboxamide formation per mg protein after 60 mins by LC-MS/MS/FSA method. It is filed as ADME. The conditions noted are these: 1 h.

Data set [7] relates to Liver cytosol. Put plainly: Drug metabolism in human liver cytosol assessed as (1R,2S,5S)-N-((2S,3R)-4-amino-1-cyclobutyl-3-hydroxy-4-oxobutan-2-yl)-3-((S)-2-(3-tert-butylureido)-3,3-dimethylbutanoyl)-6,6-dimethyl-3-azabicyclo[3.1.0]hexane-2-carboxamide formation after 60 mins by LC-MS/MS/FSA method. It is filed as ADME, tissue-based. To be noted: 1 h.
Data set [8] has as its system Liver cytosol. Put plainly: Drug metabolism in human liver cytosol assessed as (1R,2S,5S)-N-((2S,3R)-4-amino-1-cyclobutyl-3-hydroxy-4-oxobutan-2-yl)-3-((S)-2-(3-tert-butylureido)-3,3-dimethylbutanoyl)-6,6-dimethyl-3-azabicyclo[3.1.0]hexane-2-carboxamide formation per mg protein after 60 mins by LC-MS/MS/FSA method. The conditions noted are these: 1 h. It is filed as ADME, tissue-based.

In data set [9] the test system is Liver cytosol. Put plainly: Drug metabolism in human liver cytosol assessed as (1R,2S,5S)-N-((2R,3R)-4-amino-1-cyclobutyl-3-hydroxy-4-oxobutan-2-yl)-3-((S)-2-(3-tert-butylureido)-3,3-dimethylbutanoyl)-6,6-dimethyl-3-azabicyclo[3.1.0]hexane-2-carboxamide formation after 60 mins by LC-MS/MS/FSA method. The format is ADME, tissue-based. The conditions noted are these: 1 h.

The subject of data set [10] is Liver cytosol. Put plainly: Drug metabolism in human liver cytosol assessed as (1R,2S,5S)-N-((2R,3R)-4-amino-1-cyclobutyl-3-hydroxy-4-oxobutan-2-yl)-3-((S)-2-(3-tert-butylureido)-3,3-dimethylbutanoyl)-6,6-dimethyl-3-azabicyclo[3.1.0]hexane-2-carboxamide formation per mg protein after 60 mins by LC-MS/MS/FSA method. It is filed as ADME, tissue-based. To be noted: 1 h.

The test system of data set [11] is Liver cytosol. Put plainly: Ratio of Vmax to Km for drug metabolism in human liver cytosol assessed as (1R,2S,5S)-N-((2R,3R)-4-amino-1-cyclobutyl-3-hydroxy-4-oxobutan-2-yl)-3-((S)-2-(3-tert-butylureido)-3,3-dimethylbutanoyl)-6,6-dimethyl-3-azabicyclo[3.1.0]hexane-2-carboxamide formation per mg protein after 60 mins by LC-MS/MS/FSA method. It is filed as ADME. The conditions noted are these: 1 h.

Substrate in data set [12]: CC(C)(C)NC(=O)N[C@H](C(=O)N1C[C@H]2[C@@H]([C@H]1C(=O)NC(CC1CCC1)C(=O)C(N)=O)C2(C)C)C(C)(C)C
Put plainly: Activity of human recombinant AKR1C2 expressed in HEK293 cells assessed as (1R,2S,5S)-N-((2S,3R)-4-amino-1-cyclobutyl-3-hydroxy-4-oxobutan-2-yl)-3-((S)-2-(3-tert-butylureido)-3,3-dimethylbutanoyl)-6,6-dimethyl-3-azabicyclo[3.1.0]hexane-2-carboxamide formation after 120 mins in presence of NADPH by LC-MS/MS/FSA method. The format is ADME, cell-based.

T1 sequence (P08684 whole entry): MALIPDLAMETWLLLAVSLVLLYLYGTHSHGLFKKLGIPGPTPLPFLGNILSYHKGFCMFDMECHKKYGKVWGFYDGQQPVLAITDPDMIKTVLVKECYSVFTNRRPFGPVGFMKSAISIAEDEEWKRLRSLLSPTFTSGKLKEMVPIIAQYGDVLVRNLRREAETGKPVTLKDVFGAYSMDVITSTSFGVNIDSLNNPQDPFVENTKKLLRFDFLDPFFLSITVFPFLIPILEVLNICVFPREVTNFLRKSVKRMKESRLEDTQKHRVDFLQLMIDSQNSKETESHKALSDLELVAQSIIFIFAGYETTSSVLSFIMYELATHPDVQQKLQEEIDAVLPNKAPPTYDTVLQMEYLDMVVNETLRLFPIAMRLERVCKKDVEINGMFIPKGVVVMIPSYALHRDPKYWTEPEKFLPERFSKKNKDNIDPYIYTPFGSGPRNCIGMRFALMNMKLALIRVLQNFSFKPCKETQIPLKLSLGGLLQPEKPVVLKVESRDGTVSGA
T4 sequence (P20815 whole entry): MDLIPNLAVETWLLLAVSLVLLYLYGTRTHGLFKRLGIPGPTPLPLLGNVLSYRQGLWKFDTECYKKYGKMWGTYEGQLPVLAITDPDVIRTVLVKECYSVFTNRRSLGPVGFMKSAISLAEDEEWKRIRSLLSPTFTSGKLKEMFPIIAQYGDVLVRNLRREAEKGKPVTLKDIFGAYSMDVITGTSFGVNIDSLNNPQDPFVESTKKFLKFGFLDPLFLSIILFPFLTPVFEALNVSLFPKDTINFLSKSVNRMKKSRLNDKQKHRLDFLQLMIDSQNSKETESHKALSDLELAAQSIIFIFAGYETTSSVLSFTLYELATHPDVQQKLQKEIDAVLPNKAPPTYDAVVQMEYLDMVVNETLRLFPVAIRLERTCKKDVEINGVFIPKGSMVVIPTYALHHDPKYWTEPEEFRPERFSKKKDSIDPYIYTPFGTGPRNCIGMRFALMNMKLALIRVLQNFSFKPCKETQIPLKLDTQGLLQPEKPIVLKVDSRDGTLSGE
Chain of Cytochrome P450 2D6 (P10635 whole entry): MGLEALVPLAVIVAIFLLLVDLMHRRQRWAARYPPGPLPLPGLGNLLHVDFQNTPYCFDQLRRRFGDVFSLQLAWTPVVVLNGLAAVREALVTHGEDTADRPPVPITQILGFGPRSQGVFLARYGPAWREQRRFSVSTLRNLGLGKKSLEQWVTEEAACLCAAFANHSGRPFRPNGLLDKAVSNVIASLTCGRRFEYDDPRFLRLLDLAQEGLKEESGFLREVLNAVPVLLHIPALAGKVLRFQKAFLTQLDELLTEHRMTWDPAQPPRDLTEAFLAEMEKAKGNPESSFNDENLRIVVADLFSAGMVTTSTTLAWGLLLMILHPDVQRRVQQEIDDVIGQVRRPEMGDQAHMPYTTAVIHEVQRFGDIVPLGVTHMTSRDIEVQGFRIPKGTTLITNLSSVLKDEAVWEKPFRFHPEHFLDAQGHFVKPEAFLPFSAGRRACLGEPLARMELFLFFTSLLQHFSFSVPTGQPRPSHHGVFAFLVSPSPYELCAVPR

On to `CC(C)(C)NC(=O)N[C@H](C(=O)N1C[C@H]2[C@@H]([C@H]1C(N)=O)C2(C)C)C(C)(C)C`, for which the Compound recovery at Cytochrome P450 3A4 [1] was under 4.64%; on Cytochrome P450 1A2 it was 1.37%; on Cytochrome P450 1A1, 2.9%; at Cytochrome P450 3A5 [3] it was 15.74%; on Cytochrome P450 2D6, 1.9%; on Cytochrome P450 3A4 [4], under 3.45%. Also, the Compound recovery came out at 0.61% on Cytochrome P450 4F3, 10% in the data set with Plasma, 2.06% at Cytochrome P450 2B6 and 2.87% on Cytochrome P450 3A5 [5]. This molecule also gave a Retention_time in data set [2] of 22.2 min.
What is called Km is the concentration of substrate that gives half-maximal velocity. A word on the Vmax: it is the rate approached at saturating substrate. With `CC(C)(C)NC(=O)N[C@H](C(=O)N1C[C@H]2[C@@H]([C@H]1C(=O)NC(CC1CCC1)C(=O)C(N)=O)C2(C)C)C(C)(C)C` (stereo in doubt) [BOCEPREVIR], the Vmax/Km was 2.2 µL/min in the data set with Liver cytosol [6] and 2.8 µL/min in the data set with Liver cytosol [11]. The values for the Km in the data set on Liver cytosol [7] and in the data set on Liver cytosol [9] were 13 µM and 12.5 µM, respectively. For the same molecule, the Vmax with Liver cytosol [8] was 28.6 pmol/min; in the data set on Liver cytosol [10] it was 34.9 pmol/min.

B1: Aldo-keto reductase family 1 member C2 (Homo sapiens) (protein)
chain: MDSKYQCVKLNDGHFMPVLGFGTYAPAEVPKSKALEAVKLAIEAGFHHIDSAHVYNNEEQVGLAIRSKIADGSVKREDIFYTSKLWSNSHRPELVRPALERSLKNLQLDYVDLYLIHFPVSVKPGEEVIPKDENGKILFDTVDLCATWEAMEKCKDAGLAKSIGVSNFNHRLLEMILNKPGLKYKPVCNQVECHPYFNQRKLLDFCKSKDIVLVAYSALGSHREEPWVDPNSPVLLEDPVLCALAKKHKRTPALIALRYQLQRGVVVLAKSYNEQRIRQNVQVFEFQLTSEEMKAIDGLNRNVRYLTLDIFAGPPNYPFSDEY
As for B1, in data set [12], the Km was determined as 52.3 µM and the Vmax was 4.07e-05 µmol/min.

The record behind these values is ChEMBL document CHEMBL3526141, “Characterization of human liver enzymes involved in the biotransformation of boceprevir, a hepatitis C virus protease inhibitor” (Drug Metab Dispos, 2011).
